These results are taken from patent publication US20220324865A1 (Bayer Aktiengesellschaft, priority 2018, published 2022).

The target in this experiment is T1, human EP3 receptor (Homo sapiens, UniProt P43115).
T1 construct: expressed in transfected cells; host or cells: CHO K1 (Chinese Hamster Ovary), stably co-transfected with Galpha16 and mitochondrial clytin
T1 sequence (P43115 1-390): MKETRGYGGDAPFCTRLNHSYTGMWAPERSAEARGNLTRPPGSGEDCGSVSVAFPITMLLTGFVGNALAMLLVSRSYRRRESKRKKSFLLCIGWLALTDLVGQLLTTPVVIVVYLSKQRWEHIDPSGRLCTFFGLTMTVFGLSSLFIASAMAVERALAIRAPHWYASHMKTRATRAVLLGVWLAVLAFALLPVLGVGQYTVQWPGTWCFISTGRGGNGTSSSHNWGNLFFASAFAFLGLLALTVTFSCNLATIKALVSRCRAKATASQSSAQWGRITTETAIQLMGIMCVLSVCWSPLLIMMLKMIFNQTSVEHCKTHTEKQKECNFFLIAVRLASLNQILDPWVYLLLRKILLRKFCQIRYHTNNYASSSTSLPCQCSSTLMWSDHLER
The experiment can be described thus: Cellular in vitro assay for determining EP3 receptor activity (human EP3 cell line, sulprostone-stimulated calcium luminescence). It is filed as cell-based. Particulars: CHO cells expressing human EP3 and mitochondrial Clytin; antagonist mode, sulprostone at EC50; read-out: EP3 CHO mtCLY ANTAG IC50. The method, boiled down: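 CHO K1 cells stably expressing human EP3 with Gα16 and mitochondrial Clytin, loaded overnight with coelenterazine. Compounds added 10 min before sulprostone at its EC50; antagonism read immediately as reduced calcium-driven luminescence, quadruplicate points.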
Turning to `CN(C)C[C@@H](NC(=O)c1cc2c(=O)[nH]c(-c3ccc4c(c3F)OCCO4)cn2n1)c1ccccc1` [Example 1-109, N-[(1S)-2-(Dimethylamino)-1-phenylethyl]-6-(5-fluoro-2,3-dihydro-1,4-benzodioxin-6-yl)-4-oxo-4,5-dihydropyrazolo[1,5-a]pyrazine-2-carboxamide], the IC50 (in general, the concentration at which inhibition is half-maximal) was found to be 5.97 nM.

For the compound `O=C(N[C@@H](c1ccc(F)cc1)C(F)(F)CO)c1nn2cc(-c3ccc(Cl)cc3)[nH]c(=O)c2c1C1CC1` [6-675], the IC50 came to 1.5 nM.

As for `Cc1ccc(-c2cn3nc(C(=O)NCC(O)C(F)(F)F)c(C4CC4)c3c(=O)[nH]2)cc1Cl` (single isomer, unassigned) [6-259], the IC50 was found to be 0.64 nM.

With `Cc1ccc(-c2cn3nc(C(=O)NC(C)COc4cc(Cl)cc(Cl)c4)cc3c(=O)[nH]2)cc1C` (centres unmarked) [6-3], the IC50 was 7.95 nM.

For the compound `Cc1ccc([C@H](C)NC(=O)c2nn3c(C)c(-c4ccc5ccccc5c4)[nH]c(=O)c3c2C)cc1` [Example 3-20, 3,7-Dimethyl-N-[(7S)-1-(4-methylphenyl)ethyl]-6-(naphthalen-2-yl)-4-oxo-4,5-dihydropyrazolo[1,5-a]pyrazine-2-carboxamide], the IC50 came out at 8 nM.

As for `O=C(NC(CO)c1ccc(F)cc1)c1cc2c(=O)[nH]c(-c3ccc4cccnc4c3)cn2n1` (centres unmarked) [6-30], the IC50 was found to be 2.15 nM.

For `CN1CCOc2cc(-c3cn4nc(C(=O)N[C@H](CCO)c5ccc(F)cc5)cc4c(=O)[nH]3)ccc21` [Example 1-37, N-[(1R)-1-(4-Fluorophenyl)-3-hydroxopyl]-6-(4-methyl-3,4-dihydro-2H-1,4-benzoxazin-7-yl)-4-oxo-4,5-dihydropyrazolo[1,5-a]pyrazine-2-carboxamide], the IC50 came out at 0.95 nM.

For the compound `COc1ccc(CNC(=O)c2cc3c(=O)[nH]c(-c4ccc(C)c(Cl)c4)c(C)n3n2)cc1OC` [Example 1-129, 6-(3-Chloro-4-methylphenyl)-N-(3,4-dimethoxybenzyl)-7-methyl-4-oxo-4,5-dihydropyrazolo-[1,5-a]pyrazine-2-carboxamide], the IC50 was found to be 7.82 nM.

As to `Cc1ccc(-c2cn3nc(C(=O)N[C@H](C)CO)c(C4CC4)c3c(=O)[nH]2)cc1C` [Example 1-154, 3-Cyclopropyl-6-(3,4-dimethylphenyl)-N-[(2R)-1-hydroxpropan-2-yl]-4-oxo-4,5-dihydropyrazolo-[1,5-a]pyrazine-2-carboxamide], the IC50 was 2.6 nM.

Turning to `Cc1c(C(=O)NC2CCc3ccccc32)nn2c(C)c(-c3ccc4ccccc4c3)[nH]c(=O)c12` (centres unmarked) [Example 3-75, N-(2,3-Dihydro-1H-inden-1-yl)-3,7-dimethyl-6-(2-naphthyl)-4-oxo-4,5-dihydropyrazolo[1,5-a]pyrazine-2-carboxamide], the IC50 was found to be 6.45 nM.

Take `O=C(NCc1nc2ccccc2[nH]1)c1cc2c(=O)[nH]c(-c3ccc4ccccc4c3)cn2n1` [Example 2-24, N-(1H-Benzimidazol-2-ylmethyl)-6-(2-naphthyl)-4-oxo-4,5-dihydropyrazolo[1,5-a]pyrazine-2-carboxamide]: the IC50 was found to be 2.45 nM.

On to `Cc1ccc(-c2cn3nc(C(=O)N[C@H](C)C(C)C)c(C(F)(F)F)c3c(=O)[nH]2)cc1Cl` [6-189], for which the IC50 came to 1.35 nM.

On to `O=C(NC1(c2ccc(F)cc2)CN(CC(F)F)C1)c1nn2cc(-c3ccc(Cl)c(F)c3)[nH]c(=O)c2c1C1CC1` [6-108], for which the IC50 is 1.3 nM.

As for `Cc1ccc(-c2cn3nc(C(=O)NC(c4ccccc4)C(O)C(F)(F)F)cc3c(=O)[nH]2)cc1C` (centres unmarked) [6-350], the IC50 amounted to 0.78 nM.

In the case of `Cc1ccc(-c2cn3nc(C(=O)NCC(O)C(F)F)c(C4CC4)c3c(=O)[nH]2)cc1F` (racemic) [6-369], the IC50 is 3.05 nM.

In the case of `O=C(N[C@H](CCO)c1ccccc1)c1cc2c(=O)[nH]c(-c3ccc4ccccc4c3)cn2n1` [6-541], the IC50 worked out at 0.97 nM.

Turning to `COCc1c(C(=O)N[C@H](C)c2ccc(F)cc2)nn2cc(-c3ccc4ccccc4c3)[nH]c(=O)c12` [Example 1-20, N-[(1R)-1-(4-Fluorophenyl)ethyl]-3-(methoxymethyl)-6-(naphthalen-2-yl)-4-oxo-4,5-dihydropyrazolo[1,5-a]pyrazine-2-carboxamide], the IC50 is 1.09 nM.

`O=C(N[C@H](CCO)c1ccc(F)cc1)c1nn2cc(-c3ccc4ccccc4c3)[nH]c(=O)c2c1C1CC1` [Example 1-144, 3-Cyclopropyl-N-[(1R)-1-(4-fluorophenyl)-3-hydroxypropyl]-6-(naphthalen-2-yl)-4-oxo-4,5-dihydropyrazolo[1,5-a]pyrazine-2-carboxamide]: the IC50 was found to be 3.05 nM.

Regarding `Cc1ccc(-c2cn3nc(C(=O)N[C@H](C)C(C)C)c(C4CC4)c3c(=O)[nH]2)cc1Cl` [6-274], the IC50 came to 1.3 nM.

As to `Cc1ccc(-c2cn3nc(C(=O)NCC(N)C(F)(F)F)c(C4CC4)c3c(=O)[nH]2)cc1C` (single isomer, unassigned) [6-432], the IC50 amounted to 1.1 nM.

As for `Cc1ccc(-c2cn3nc(C(=O)N[C@@H](c4ccc(F)cc4)C(C)(C)O)c(C4CC4)c3c(=O)[nH]2)cc1F` [Example 1-158], the IC50 amounted to 0.983 nM.

Regarding `Cc1ccc(-c2cn3nc(C(=O)N[C@@H](c4ccccc4)C(C)(C)O)c(C4CC4)c3c(=O)[nH]2)cc1F` [6-385], the IC50 was found to be 1.3 nM.

Take `COC[C@H](NC(=O)c1nn2cc(-c3ccc(C(F)(F)F)c(C)c3)[nH]c(=O)c2c1C1CC1)c1ccccc1` [6-137]: the IC50 came out at 1.4 nM.

Turning to `Cc1cc(-c2cn3nc(C(=O)NCC(O)C(F)(F)F)c(C4CC4)c3c(=O)[nH]2)ccc1Cl` (single isomer, unassigned) [6-314], the IC50 was 0.85 nM.

On to `Cc1ccc(-c2cn3nc(C(=O)NCC(O)C(F)F)c(C4CC4)c3c(=O)[nH]2)cc1F` (single isomer, unassigned) [6-371], for which the IC50 was 2.7 nM.

Regarding `Cc1ccc(CNC(=O)c2cc3c(=O)[nH]c(-c4ccc5ccccc5c4)cn3n2)cc1` [Example 2-14, N-(4-Methylbenzyl)-6-(2-naphthyl)-4-oxo-4,5-dihydropyrazolo[1,5-a]pyrazine-2-carboxamide], the IC50 amounted to 1.25 nM.

As for `Cc1nn(C)cc1C(C)NC(=O)c1cc2c(=O)[nH]c(-c3ccc4ccccc4c3)cn2n1` (centres unmarked) [Example 2-5, N-[1-(1,3-Dimethyl-1H-pyrazol-4-yl)ethyl]-6-(2-naphthyl)-4-oxo-4,5-dihydropyrazolo[1,5-a]pyrazine-2-carboxamide], the IC50 was found to be 4 nM.

Consider `CC(C)(O)[C@@H](NC(=O)c1nn2cc(-c3ccc(C(F)(F)F)c(F)c3F)[nH]c(=O)c2c1C1CC1)c1ccc(F)cc1` [6-602], for which the IC50 is 5.65 nM.

In the case of `Cc1ccc(-c2cn3nc(C(=O)NC4CCN(CC(F)(F)F)C4)c(C4CC4)c3c(=O)[nH]2)cc1F` (single isomer, unassigned) [6-391], the IC50 came to 3.3 nM.

For the compound `Cc1ccc(-c2cn3nc(C(=O)NCCN(C)C4CC4)c(C4CC4)c3c(=O)[nH]2)cc1C` [6-661], the IC50 was found to be 1.43 nM.

For `Cc1ccc(-c2cn3nc(C(=O)NC4(c5ccc(F)cc5)CN(C)C4)c(C4CC4)c3c(=O)[nH]2)cc1Cl` [6-262], the IC50 is 2.8 nM.

For `O=C(N[C@H]1c2ccccc2C[C@H]1O)c1cc2c(=O)[nH]c(-c3ccc4ccccc4c3)cn2n1` [6-72], the IC50 stood at 7.93 nM.
